Measurements: patent publication US8946144B2, “Phosphonated glycopeptide and lipoglycopeptide antibiotics and uses thereof for the prevention and treatment of bone and joint infections” (The Medicines Company, priority 2006, dated 2015)
Values after ≈ are worked out from the molar mass of the structure shown. Counter-ions that a name gives are not always drawn.

Legend:
[1] = tested on: S. aureus strain ATCC13709; test: Antibacterial susceptibility (MIC) in CAMHB; type: cell-based; conditions: for Minimum inhibitory concentration, CAMHB: S. aureus ATCC 13709, cation adjusted Mueller-Hinton broth, 37° C., 18 h; for MIC: Staphylococcus aureus, ATCC13709, 18 h, read-out: Minimum inhibitory concentration, CAMHB
Protocol: (§1) Susceptibility of S. aureus strain ATCC13709 to the commercial antibiotics and synthesized compounds was determined by following the guidelines set by the Clinical and Laboratory Standards Institute (formerly the National Committee for Clinical Laboratory Standards) (M26-A). Compounds were diluted two-fold serially in either DMSO (Vancomycin 4, Oritavancin 8, compounds 10, 31, 33, 39, 44, 50, 60, 65), DMF (compounds 18 and 21) or in PBS (compound 6) and transferred to cation-adjusted Mueller Hinton broth (CAMHB; Becton Dickinson). 50 μL of compounds diluted in CAMHB was mixed with […] of bacteria diluted in CAMHB in 96-well microtiter plates. The final number of micro-organisms in the assay was 5×10^5 c.f.u. per mL and the final concentration of DMSO or DMF in the assay, if present, was 1.25%. Assays were set up in duplicate and incubated at 37° C. for 18 h. The concentration of compound that inhibited visible growth was reported as the minimum inhibitory concentration (MIC).

[2] = tested on: S. aureus strain ATCC13709; test: Antibacterial susceptibility (MIC) in the presence of 50% serum; type: cell-based; conditions: for Minimum inhibitory concentration, CAMHB + 50% Human Serum / Minimum inhibitory concentration, CAMHB + 50% Mouse Serum / Minimum inhibitory concentration, CAMHB + 50% Rat Serum: S. aureus ATCC 13709; for MIC: Staphylococcus aureus
Protocol: as §1
Susceptibility testing experiments were also carried out in the presence of serum. These experiments were carried out similar to the susceptibility testing with the following modifications. 75 μL of compounds diluted in CAMHB was mixed with 75 μL of bacteria diluted in 100% serum from any given source (commercial pooled mouse serum (MS) and human serum (HS), Equitech-Bio Inc.). The final concentration of animal serum in the assay was 50% and the concentrations of all other components were identical to those described for susceptibility testing.

[3] = Regeneration of parent drug from bone powder-bound prodrug; type: in vitro ADME; conditions: 24 h incubation, 37° C.
Protocol: Amounts of parent drug “regenerated” from the phosphonated prodrug were measured as follows. Washed bone powder-bound prodrugs from the above experiment were resuspended in 400 μL PBS+2% DMSO or in 400 μL 50% (v/v in PBS+2% DMSO) human or rat serum. The suspension was incubated overnight at 37° C., centrifuged at 13,000 rpm for 2 min and the supernatant was recovered. The amount of regenerated parent drug in the supernatant was determined by measurements using the microbiological assays that were previously described for the prodrugs themselves. The amount of released drug from prodrug was deduced from standard curves of known amounts of parent drug that were used as reference for each experiment. The amount of regenerated drug assessed by this bioassay was corroborated by MIC determination. The percentage of drug regenerated in PBS or serum after the overnight incubation (Table 2) was deduced from the difference between the amount of bound prodrug and the amount of regenerated drug (not shown).

[4] = ATCC13709, read-out: Minimum inhibitory concentration, CAMHB + 50% Human Serum
[5] = ATCC13709, read-out: Minimum inhibitory concentration, CAMHB + 50% Mouse Serum
[6] = ATCC13709, read-out: Minimum inhibitory concentration, CAMHB + 50% Rat Serum

Row | Structure (SMILES) | Minimum inhibitory concentration, CAMHB [1] [µg/mL] | Minimum inhibitory concentration, CAMHB + 50% Human Serum [2] [µg/mL] | Minimum inhibitory concentration, CAMHB + 50% Mouse Serum [2] [µg/mL] | Minimum inhibitory concentration, CAMHB + 50% Rat Serum [2] [µg/mL] | % Conversion (prodrug converted to parent drug) ([3]; 50% rat serum) [%] | % Conversion (prodrug converted to parent drug) ([3]; PBS) | MIC [1] [µg/mL] | MIC [2, 4] [µg/mL] | MIC [2, 5] [µg/mL] | MIC [2, 6] [µg/mL]
1 | CC(C)C[C@H](C(=O)N[C@H]1C(=O)N[C@@H](CC(N)=O)C(=O)N[C@H]2C(=O)N[C@H]3C(=O)N[C@H](C(=O)N[C@H](C(=O)O)c4cc(O)cc(O)c4-c4cc3ccc4O)[C@H](O[C@H]3C[C@](C)(N)[C@@H](O)[C@H](C)O3)c3ccc(c(Cl)c3)Oc3cc2cc(c3O[C@@H]2O[C@H](CO)[C@@H](O)[C@H](O)[C@H]2O[C@H]2C[C@](C)(NCc3ccc(-c4ccc(Cl)cc4)cc3)[C@@H](O)[C@H](C)O2)Oc2ccc(cc2Cl)[C@H]1O)N(C)C(=O)OCOC(=O)CCC(P(=O)(O)O)P(=O)(O)O.O=C(O)C(F)(F)F.O=C(O)C(F)(F)F [Compound 65] | 8 | 4 | 0.5 | 1 | 26.4 | 0.2% | – | – | – | –
2 | CC(C)C[C@H](C(=O)N[C@H]1C(=O)N[C@@H](CC(N)=O)C(=O)N[C@H]2C(=O)N[C@H]3C(=O)N[C@H](C(=O)N[C@H](C(=O)O)c4cc(O)cc(O)c4-c4cc3ccc4O)[C@H](O[C@H]3C[C@](C)(N)[C@@H](O)[C@H](C)O3)c3ccc(c(Cl)c3)Oc3cc2cc(c3O[C@@H]2O[C@H](CO)[C@@H](O)[C@H](O)[C@H]2O[C@H]2C[C@](C)(NCc3ccc(-c4ccc(Cl)cc4)cc3)[C@@H](O)[C@H](C)O2)Oc2ccc(cc2Cl)[C@H]1O)N(C)C(=O)CCCOC(=O)CC(P(=O)(O)O)P(=O)(O)O [Compound 50] | 32 (≈ 15.3 µM) | >32 | 32 | >32 | – | – | – | – | – | –
3 | CC(C)C[C@H](C(=O)N[C@H]1C(=O)N[C@@H](CC(N)=O)C(=O)N[C@H]2C(=O)N[C@H]3C(=O)N[C@H](C(=O)N[C@H](C(=O)O)c4cc(O)cc(O)c4-c4cc3ccc4O)[C@H](O[C@H]3C[C@](C)(N)[C@@H](O)[C@H](C)O3)c3ccc(c(Cl)c3)Oc3cc2cc(c3O[C@@H]2O[C@H](CO)[C@@H](O)[C@H](O)[C@H]2O[C@H]2C[C@](C)(NCc3ccc(-c4ccc(Cl)cc4)cc3)[C@@H](O)[C@H](C)O2)Oc2ccc(cc2Cl)[C@H]1O)N(C)C(=O)OCOC(=O)CCCC(P(=O)(O)O)P(=O)(O)O [Compound 60] | 32 (≈ 15.2 µM) | >32 | 32 | 32 | 0.05 | <LOD | – | – | – | –
4 | CC(C)C[C@H](C(=O)N[C@H]1C(=O)N[C@@H](CC(N)=O)C(=O)N[C@H]2C(=O)N[C@H]3C(=O)N[C@H](C(=O)N[C@H](C(=O)O)c4cc(O)cc(O)c4-c4cc3ccc4O)[C@H](O[C@H]3C[C@](C)(N)[C@@H](O)[C@H](C)O3)c3ccc(c(Cl)c3)Oc3cc2cc(c3O[C@@H]2O[C@H](CO)[C@@H](O)[C@H](O)[C@H]2O[C@H]2C[C@](C)(NCc3ccc(-c4ccc(Cl)cc4)cc3)[C@@H](O)[C@H](C)O2)Oc2ccc(cc2Cl)[C@H]1O)N(C)C(=O)CCCC(=O)NC(P(=O)(O)O)P(=O)(O)O.N.N.N [Compound 10] | >32 | >32 | >32 | >32 | – | – | – | – | – | –
5 | CC(C)C[C@H](C(=O)N[C@H]1C(=O)N[C@@H](CC(N)=O)C(=O)N[C@H]2C(=O)N[C@H]3C(=O)N[C@H](C(=O)N[C@H](C(=O)O)c4cc(O)cc(O)c4-c4cc3ccc4O)[C@H](O[C@H]3C[C@](C)(N)[C@@H](O)[C@H](C)O3)c3ccc(c(Cl)c3)Oc3cc2cc(c3O[C@@H]2O[C@H](CO)[C@@H](O)[C@H](O)[C@H]2O[C@H]2C[C@](C)(NCc3ccc(-c4ccc(Cl)cc4)cc3)[C@@H](O)[C@H](C)O2)Oc2ccc(cc2Cl)[C@H]1O)N(C)C(=O)CC(P(=O)(O)O)P(=O)(O)O.N.N.N [Compound 44] | 32 | 32 | 4 | 4 | – | – | – | – | – | –
6 | CC(C)CC(C(=O)NC1C(=O)NC(CC(N)=O)C(=O)NC2C(=O)NC3C(=O)NC(C(=O)NC(C(=O)O)c4cc(O)cc(O)c4-c4cc3ccc4O)C(O)c3ccc(c(Cl)c3)Oc3cc2cc(c3OC2OC(CO)C(O)C(O)C2OC2CC(C)(N)C(O)C(C)O2)Oc2ccc(cc2Cl)C1O)N(C)C(=O)CCC(=O)NC(P(=O)(O)O)P(=O)(O)O (centres unmarked) [Compound 6] | 64 (≈ 37.2 µM) | 16 | 32 | 128 | – | – | – | – | – | –
7 | CN[C@H](CC(C)C)C(=O)N[C@H]1C(=O)N[C@@H](CC(N)=O)C(=O)N[C@H]2C(=O)N[C@H]3C(=O)N[C@H](C(=O)N[C@H](C(=O)O)c4cc(O)cc(O)c4-c4cc3ccc4O)[C@H](O[C@H]3C[C@](C)(N)[C@@H](O)[C@H](C)O3)c3ccc(c(Cl)c3)Oc3cc2cc(c3O[C@@H]2O[C@H](CO)[C@@H](O)[C@H](O)[C@H]2O[C@H]2C[C@](C)(NCc3ccc(-c4ccc(Cl)cc4)cc3)[C@@H](O)[C@H](C)O2)Oc2ccc(cc2Cl)[C@H]1O [Oritavancin (8), oritavancin bisphosphoric acid salt, reference compound] | – | – | – | – | – | – | 0.5 | 1 | 2 | 0.25
8 | CN[C@H](CC(C)C)C(=O)N[C@H]1C(=O)N[C@@H](CC(N)=O)C(=O)N[C@H]2C(=O)N[C@H]3C(=O)N[C@H](C(=O)N[C@H](C(=O)OCC(=O)Nc4ccc(CC(P(=O)(O)O)P(=O)(O)O)cc4)c4cc(O)cc(O)c4-c4cc3ccc4O)[C@H](O[C@H]3C[C@](C)(N)[C@@H](O)[C@H](C)O3)c3ccc(c(Cl)c3)Oc3cc2cc(c3O[C@@H]2O[C@H](CO)[C@@H](O)[C@H](O)[C@H]2O[C@H]2C[C@](C)(NCc3ccc(-c4ccc(Cl)cc4)cc3)[C@@H](O)[C@H](C)O2)Oc2ccc(cc2Cl)[C@H]1O.N.N.N [Compound 33] | >32 | >32 | 8 | 8 | – | – | – | – | – | –
9 | CN[C@H](CC(C)C)C(=O)N[C@H]1C(=O)N[C@@H](CC(N)=O)C(=O)N[C@H]2C(=O)N[C@H]3C(=O)N[C@H](C(=O)N[C@H](C(=O)OCC(=O)NC(P(=O)(O)O)P(=O)(O)O)c4cc(O)cc(O)c4-c4cc3ccc4O)[C@H](O[C@H]3C[C@](C)(N)[C@@H](O)[C@H](C)O3)c3ccc(c(Cl)c3)Oc3cc2cc(c3O[C@@H]2O[C@H](CO)[C@@H](O)[C@H](O)[C@H]2O[C@H]2C[C@](C)(NCc3ccc(-c4ccc(Cl)cc4)cc3)[C@@H](O)[C@H](C)O2)Oc2ccc(cc2Cl)[C@H]1O.O=C(O)C(F)(F)F.O=C(O)C(F)(F)F.O=C(O)C(F)(F)F [Compound 31] | 16 | 32 | 2 | 2 | – | – | – | – | – | –
10 | CN[C@H](CC(C)C)C(=O)N[C@H]1C(=O)N[C@@H](CC(N)=O)C(=O)N[C@H]2C(=O)N[C@H]3C(=O)N[C@H](C(=O)N[C@H](C(=O)O)c4cc(O)cc(O)c4-c4cc3ccc4O)[C@H](O)c3ccc(c(Cl)c3)Oc3cc2cc(c3O[C@@H]2O[C@H](CO)[C@@H](O)[C@H](O)[C@H]2O[C@H]2C[C@](C)(N)[C@H](O)[C@H](C)O2)Oc2ccc(cc2Cl)[C@H]1O [Vancomycin (4), vancomycin hydrochloride, reference compound] | – | – | – | – | – | – | 1 | 1 | 2 | 2
